Reference: patent publication US20250388896A1, “COMPOSITION AND METHODS FOR TRANSGENE INSERTION” (ARTISAN DEVELOPMENT LABS, INC, priority 2022, published 2025)

Key:
[1] = tested on: AAVS1; test: CAR insertion efficiency at AAVS1 in primary T-cells by flow cytometry; assay type: cell-based, human; conditions: primary Pan T-cells; recovery medium pretreated with 2 μM M3814; 75:50 pmol gNA:MAD7, 1.5 μg μL^−1 donor template, PGA
Experimental: T-cells were isolated from human peripheral blood obtained from healthy adults by immune-magnetic negative selection using the EasySep Human T-cell Isolation Kit ([sequence] Technologies). After isolation, T-cells were activated in 25 μL mL^−1 ImmunoCult Human CD3/CD28/CD2 T-Cell Activator ([sequence] Technologies) in ImmunoCult-XF T-Cell Expansion Medium ([sequence] Technologies) containing 12.5 ng mL^−1 Human Recombinant IL-2, 5 ng mL^−1 IL-7, and 5 ng mL^−1 IL-15 ([sequence] Technologies) and seeded at 1.0×10^6 cells mL^−1. Until transfection 48 hours later, the cells were cultured at 37° C. in 5% CO2 incubators.
Donor templates comprising site-specific homology arms, respective promoter, and respective gene (GFP or Hu19 scFv-CD8α-CD28-CD3ζ CAR) were amplified from corresponding pTwist Ampicillin high-copy plasmids (Twist Bioscience) using homology arms-specific PCR primers. […] Purified HDR templates were collected and quantified on NanoDrop One Microvolume UV-Vis Spectrophotometer (ThermoFisher Scientific). […] HDR templates were collected, diluted, and concentrations quantified using Qubit dsDNA HS Assay Kit (ThermoFisher Scientific). […]

[2] = tested on: AAVS1 locus; test: INDEL frequency at the AAVS1 locus in Jurkat cells; assay type: cell-based, human
Experimental: Ribonucleoprotein complexes (RNPs) were generated by incubating respective guide nucleic acids (gNAs) with MAD7 in the molar ratio of 3:2 gNA:MAD7 for 15 minutes at room temperature immediately before transfection. For Jurkat experiments, the RNP complexes were generated by mixing the respective gNA (150 pmol), MAD7 (100 pmol), and nuclease-free water, unless otherwise stated. […] Lonza 4D Nucleofector with Shuttle unit (V4SC-2960 Nucleocuvette Strips) was used for transfection, following the manufacturer's instructions. […] Extracted genomic DNA was quantified using the NanoDrop (ThermoFisher Scientific). […] The DNA was eluted from the beads with nuclease-free water and the size of the purified amplicons analyzed on a 2% agarose E-gel using the E-gel electrophoresis system (ThermoFisher Scientific). In the second PCR, unique pairs of Illumina-compatible indexes (Nextera XT Index Kit v2) were added to the amplicons using the KAPA HiFi HotStart Ready Mix (Roche). […] Sizes of the purified DNA fragments were validated on a 2% agarose gel using the E-gel electrophoresis system (ThermoFisher Scientific), quantified using Qubit dsDNA HS Assay Kit (Thermo Fisher) and then pooled in equimolar concentrations. […] The final library was sequenced on Illumina MiSeq System using the MiSeq Reagent Kit v.2 (300 cycles, 2×250 bp, paired-end reads). […]

Compound	more efficient CAR insertion than other experiments [1] [times]	activity of gNA targeting AAVS1 (INDEL frequency) [2]
COc1ccc([C@@H](O)c2cc(-c3ncnc4cc(N5CCOCC5)ccc34)c(F)cc2Cl)nn1 [M3814]	~5	–
crAAVS1: highly active gNA targeting the AAVS1 safe-harbor locus (guide TTAGGATGGCCTTCTCCGACG; listed as DNA, further chemistry not given here)	–	highly active
